Measurements taken from ChEMBL document CHEMBL5257018, “Novel Strategies for the Treatment of Pseudomonas aeruginosa Infections” (J Med Chem, 2016).
Converted amounts (≈) assume the structure as drawn. Numbered stars: 1 amine (or outer) side, 2 acyl side, 3 side chain; on linkers, the order of the positions; unused ones are H or OH. Square brackets hold non-standard residues; d marks the D form. Peptide text beside a SMILES is read from it. X2 = COc1cccc2[nH]c(C)c(C[C@H](N[*:1])C(=O)[*:2])c12; dAla(ψthiazole) = C[C@@H](N[*:1])c1nc(C(=O)[*:2])cs1; Trp(4-OMe) = COc1cccc2[nH]cc(C[C@H](N)C(=O)O)c12; X3 = O=C(c1csc([C@@H](CO)N[*:1])n1)[*:2]; dAbu = CC[C@@H](N)C(=O)O; Dha = C=C(N)C(=O)O; Sar = CNCC(=O)O

System: Pseudomonas aeruginosa
Experiment: Antimicrobial activity against Pseudomonas aeruginosa assessed as reduction in bacterial growth
Format: functional, organism-based
Conditions: not given

| SMILES | IC50 | MIC90 | MIC |
| --- | --- | --- | --- |
| C=C1NC(=O)[C@@H](CC)NC(=O)CNC(=O)[C@H](Cc2c(C)[nH]c3cccc(OC)c23)NC(=O)[C@H](Cc2c[nH]c3ccccc23)NC(=O)c2csc(n2)[C@@H](C)NC(=O)CN(C)C1=O (cyclo(W[X2]G[dAbu][Dha][Sar][dAla(ψthiazole)])) | 0.14 µg/mL (≈ 0.164 µM) | – | – |
| CN(C)c1cc(NC(=O)CNC(C)(C)C)c(O)c2c1C[C@H]1C[C@H]3[C@H](N(C)C)C(O)=C(C(N)=O)C(=O)[C@@]3(O)C(O)=C1C2=O [TIGECYCLINE] | – | 16 µg/mL (≈ 27.3 µM) | – |
| C=C1NC(=O)[C@@H](C)NC(=O)CNC(=O)[C@H](Cc2c[nH]c3cccc(OC)c23)NC(=O)[C@H](Cc2c[nH]c3ccccc23)NC(=O)c2csc(n2)[C@@H](CO)NC(=O)CN(C)C1=O (cyclo([Dha][Sar][X3]W[Trp(4-OMe)]G[dA])) | 5 µg/mL (≈ 5.95 µM) | – | – |
| COc1c(NC(=O)c2ccc(NC(=O)c3ccc(NC(=O)[C@H](CC#N)NC(=O)c4ccc(NC(=O)/C(C)=C/c5ccc(O)cc5)cc4)cc3)c(OC)c2O)ccc(C(=O)O)c1O | – | – | 1 µg/mL (≈ 1.19 µM) |

Molecular target: Elastase (Pseudomonas aeruginosa (strain ATCC 15692 / PAO1 / 1C / PRS 101 / LMG12228), UniProt P14756)
Experiment: Inhibition of Pseudomonas aeruginosa LasB elastase using aminobenzoyl-Ala-Gly-Leu-Ala-p-nitro-benzyl-amide as substrate b microtiter-based fluorimetric assay
Conditions: not given

Sequence of Elastase (P14756 whole entry): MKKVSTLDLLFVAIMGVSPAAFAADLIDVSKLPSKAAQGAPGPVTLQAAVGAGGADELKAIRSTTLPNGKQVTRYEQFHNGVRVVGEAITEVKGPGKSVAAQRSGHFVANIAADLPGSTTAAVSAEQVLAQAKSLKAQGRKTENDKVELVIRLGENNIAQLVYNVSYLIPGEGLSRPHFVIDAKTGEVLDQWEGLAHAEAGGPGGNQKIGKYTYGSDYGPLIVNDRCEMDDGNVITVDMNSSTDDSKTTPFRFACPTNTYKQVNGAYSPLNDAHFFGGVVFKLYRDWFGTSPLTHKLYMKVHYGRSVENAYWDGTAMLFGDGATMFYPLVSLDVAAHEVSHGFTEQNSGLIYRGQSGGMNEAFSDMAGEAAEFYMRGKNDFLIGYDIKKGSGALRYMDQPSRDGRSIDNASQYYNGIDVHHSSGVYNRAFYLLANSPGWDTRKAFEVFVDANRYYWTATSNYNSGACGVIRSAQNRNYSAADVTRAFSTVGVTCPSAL

| SMILES | Ki | IC50 |
| --- | --- | --- |
| CC(C)C[C@H](NP(=O)(O)O[C@@H]1O[C@@H](C)[C@H](O)[C@@H](O)[C@H]1O)C(=O)N[C@@H](Cc1c[nH]c2ccccc12)C(=O)O [PHOSPHORAMIDON] | 57 nM | – |
| O=C(Nc1ccc(O)c(=O)cc1)Nc1cccc2ccccc12 | – | 1000 nM |
| CC(=O)SCC(=O)Nc1cc(C)c(Br)cc1Cl | – | 6000 nM |
| Cc1c(O)c(=S)ccn1Cc1ccc(-c2ccccc2)cc1 | – | 3000 nM |

Molecular target: T1, PA-I galactophilic lectin (Pseudomonas aeruginosa (strain ATCC 15692 / PAO1 / 1C / PRS 101 / LMG12228), UniProt Q05097)
T1 sequence (Q05097 whole entry): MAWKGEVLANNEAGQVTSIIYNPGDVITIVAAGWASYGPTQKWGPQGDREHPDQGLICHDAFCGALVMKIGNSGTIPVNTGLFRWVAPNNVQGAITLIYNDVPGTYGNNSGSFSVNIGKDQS
Experiment: Binding affinity to Pseudomonas aeruginosa PAO1 LecA assessed as dissociation constant
Conditions: not given

| SMILES | Kd |
| --- | --- |
| C[C@@H]1O[C@H](CO)[C@@H](O)[C@H](O)[C@@H]1O | 16000 nM |
| CC[C@H](C)[C@H](NC(=O)[C@H](Cc1cnc[nH]1)NCCCC[C@H](NC(=O)[C@@H](NC(=O)[C@H](CCCCN)NC(=O)[C@H](Cc1ccccc1)NC(=O)[C@H](CCCCNC(=O)[C@H](CC(C)C)NC(=O)[C@@H]1CCCN1C(=O)[C@@H](N)CCCCNC(=O)C[C@@H]1O[C@@H](C)[C@@H](O)[C@@H](O)[C@@H]1O)NC(=O)[C@H](CC(C)C)NC(=O)[C@@H]1CCCN1C(=O)[C@@H](N)CCCCNC(=O)C[C@@H]1O[C@@H](C)[C@@H](O)[C@@H](O)[C@@H]1O)[C@@H](C)CC)C(=O)N[C@H](C(=O)N[C@@H](CCCCN)C(=O)N[C@@H](Cc1ccccc1)C(=O)N[C@@H](CCCCN[C@@H](CC(C)C)C(=O)N1CCC[C@H]1C(=O)N[C@@H](CCCCNC(=O)C[C@@H]1O[C@@H](C)[C@@H](C)[C@@H](C)[C@@H]1O)C(=O)O)C(=O)N[C@@H](CC(C)C)C(=O)N1CCC[C@H]1C(=O)N[C@@H](CCCCNC(=O)C[C@@H]1O[C@@H](C)[C@@H](O)[C@@H](O)[C@@H]1O)C(=O)O)[C@@H](C)CC)C(N)=O | 140 nM |
| CO[C@H]1O[C@H]([C@@H](O)CNS(=O)(=O)c2c(C)cc(C)cc2C)[C@@H](O)[C@H](O)[C@@H]1O | 100 nM |
| C[C@@H]1O[C@H](C)[C@@H](O)[C@H](O)[C@@H]1O | 17000 nM |
| N=C(N)NCCC[C@H](NC(=O)COCCOCCNC(=O)[C@H](CCCCNC(=O)[C@@H]1C[C@H](NC(=O)[C@H](Cc2cn(CCNC(=O)c3ccc(S[C@@H]4O[C@H](CO)[C@H](O)[C@H](O)[C@H]4O)cc3)nn2)NC(=O)COc2ccccc2)CN1)NC(=O)[C@@H]1C[C@H](NC(=O)[C@H](Cc2cn(CCNC(=O)c3ccc(S[C@@H]4O[C@H](CO)[C@H](O)[C@H](O)[C@H]4O)cc3)nn2)NC(=O)COc2ccccc2)CN1)C(N)=O | 82 nM |
| COC(=O)c1cn([C@@H]2O[C@H](CO)[C@@H](O[C@@H]3O[C@@H](C)[C@@H](O)[C@@H](O)[C@@H]3O)[C@H](O)[C@H]2NC(C)=O)nn1 | 290 nM |
| CC(=O)N[C@H]1C(O)O[C@H](CO)[C@@H](O[C@@H]2O[C@@H](C)[C@@H](O)[C@@H](O)[C@@H]2O)[C@@H]1O[C@@H]1O[C@H](CO)[C@H](O)[C@H](O)[C@H]1O (stereo partly drawn) | 212 nM |
| OC[C@H]1O[C@@H](Sc2ccc3ccccc3c2)[C@H](O)[C@@H](O)[C@H]1O | 6300 nM |

System: not listed separately
Experiment: Half life in mouse
Format: ADME, organism-based
Conditions: in vivo

| SMILES | half-life |
| --- | --- |
| CO[C@H]1O[C@H](CNC(=O)/C=C/c2ccccc2)[C@@H](O)[C@H](O)[C@@H]1O | 5 min |
| CO[C@H]1O[C@H](CO)[C@@H](O)[C@H](O)[C@@H]1O | 0.75 min |
